Source: ChEMBL document CHEMBL4610102, “Betulinic Acid Inhibits RANKL-Induced Osteoclastogenesis via Attenuating Akt, NF-κB, and PLCγ2-Ca2+ Signaling and Prevents Inflammatory Bone Loss” (J Nat Prod, 2020)
Calls of active or inactive are those of the source. The calls are words filed in the database; no cut-off is given here.

Key:
[1] = target: RAC-alpha serine/threonine-protein kinase (Mus musculus) (UniProt P31750); experiment: Inhibition of AKT phosphorylation in RANKL-induced ICR mouse bone marrow macrophages at 1 uM preincubated for 1 hr followed by RANKL-stimulation and measured after 5 to 30 mins by Western blot analysis
Chain of RAC-alpha serine/threonine-protein kinase (Mus musculus) (P31750 whole entry): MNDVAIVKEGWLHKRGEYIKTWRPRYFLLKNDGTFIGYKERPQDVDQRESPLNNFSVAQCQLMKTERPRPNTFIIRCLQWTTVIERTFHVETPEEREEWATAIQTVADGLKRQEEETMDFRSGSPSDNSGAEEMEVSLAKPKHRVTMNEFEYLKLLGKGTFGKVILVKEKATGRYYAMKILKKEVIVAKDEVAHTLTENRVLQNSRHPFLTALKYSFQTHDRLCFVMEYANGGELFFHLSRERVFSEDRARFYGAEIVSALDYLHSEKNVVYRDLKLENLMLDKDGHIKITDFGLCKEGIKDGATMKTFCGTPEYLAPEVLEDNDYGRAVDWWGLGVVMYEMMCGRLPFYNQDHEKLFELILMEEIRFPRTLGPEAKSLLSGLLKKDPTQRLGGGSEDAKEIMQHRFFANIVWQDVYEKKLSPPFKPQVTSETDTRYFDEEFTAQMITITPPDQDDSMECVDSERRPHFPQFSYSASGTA

[2] = tested on: BMDM; experiment: Anti-osteoporosis activity in ICR mouse bone marrow macrophages assessed as inhibition of RANKL-induced c-Fos protein expression at 0.1 to 1 uM after 24 hrs by Western blot analysis; format: functional, cell-based
[3] = tested on: BMDM; experiment: Anti-osteoporosis activity in ICR mouse bone marrow macrophages assessed as inhibition of RANKL-induced NFATc1 protein expression at 0.1 to 1 uM after 24 hrs by Western blot analysis; format: functional, cell-based
[4] = tested on: BMDM; experiment: Inhibition of RANKL-induced osteoclastogenesis in ICR mouse bone marrow macrophages assessed as reduction in TRAP-positive multinucleated osteoclasts at 0.1 to 1 uM after 3 days by TRAP staining based assay; format: functional, cell-based
[5] = tested on: BMDM; experiment: Inhibition of RANKL-induced osteoclastogenesis in ICR mouse bone marrow macrophages assessed as reduction in TRAP-positive multinucleated osteoclasts after 4 days by TRAP staining based assay; format: functional, cell-based
[6] = tested on: BMDM; experiment: Cytotoxicity against ICR mouse bone marrow macrophages assessed as reduction in cell viability up to 10 uM after 3 days by XTT assay; format: cell-based; conditions: 72 h
[7] = target: T1, 1-phosphatidylinositol 4,5-bisphosphate phosphodiesterase gamma-2 (Mus musculus) (UniProt Q8CIH5); experiment: Inhibition of PLCgamma2 in ICR mouse bone marrow macrophages assessed as reduction in calcium influx at 10 uM after 3 days by Fluo-3/AM staining based confocal microscopic analysis
T1 sequence (whole entry): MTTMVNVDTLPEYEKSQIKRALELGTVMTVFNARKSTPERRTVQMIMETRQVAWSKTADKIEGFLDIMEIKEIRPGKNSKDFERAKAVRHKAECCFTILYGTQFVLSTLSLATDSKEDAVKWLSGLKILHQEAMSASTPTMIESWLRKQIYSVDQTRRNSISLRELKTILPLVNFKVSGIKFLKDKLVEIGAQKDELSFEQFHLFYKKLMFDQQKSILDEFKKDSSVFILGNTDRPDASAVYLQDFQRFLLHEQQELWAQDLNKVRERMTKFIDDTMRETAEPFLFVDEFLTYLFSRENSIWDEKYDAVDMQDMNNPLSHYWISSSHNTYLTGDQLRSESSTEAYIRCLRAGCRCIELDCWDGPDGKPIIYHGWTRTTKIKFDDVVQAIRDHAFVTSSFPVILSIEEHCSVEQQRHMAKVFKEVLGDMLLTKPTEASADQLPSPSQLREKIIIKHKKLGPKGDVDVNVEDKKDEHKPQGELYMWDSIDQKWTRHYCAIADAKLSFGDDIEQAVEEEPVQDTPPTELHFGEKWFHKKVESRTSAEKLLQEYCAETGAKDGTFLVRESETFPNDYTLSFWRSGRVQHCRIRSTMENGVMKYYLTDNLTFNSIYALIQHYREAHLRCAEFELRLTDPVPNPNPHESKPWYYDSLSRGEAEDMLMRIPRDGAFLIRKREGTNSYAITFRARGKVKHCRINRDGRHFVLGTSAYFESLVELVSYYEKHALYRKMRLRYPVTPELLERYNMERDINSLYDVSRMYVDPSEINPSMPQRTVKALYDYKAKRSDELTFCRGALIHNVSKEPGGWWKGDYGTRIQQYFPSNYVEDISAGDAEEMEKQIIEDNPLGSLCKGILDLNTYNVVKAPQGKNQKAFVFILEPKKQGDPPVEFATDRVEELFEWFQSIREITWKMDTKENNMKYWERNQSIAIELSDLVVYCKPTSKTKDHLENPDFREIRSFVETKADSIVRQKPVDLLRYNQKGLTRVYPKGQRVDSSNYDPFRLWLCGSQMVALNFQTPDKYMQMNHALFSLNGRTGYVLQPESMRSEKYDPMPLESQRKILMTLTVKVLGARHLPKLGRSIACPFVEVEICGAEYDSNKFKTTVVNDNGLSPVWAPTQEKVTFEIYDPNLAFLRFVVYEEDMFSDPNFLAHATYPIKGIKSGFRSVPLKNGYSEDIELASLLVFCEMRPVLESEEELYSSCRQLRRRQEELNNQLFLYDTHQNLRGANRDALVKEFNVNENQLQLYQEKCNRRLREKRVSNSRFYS

[8] = target: T1, 1-phosphatidylinositol 4,5-bisphosphate phosphodiesterase gamma-2 (Mus musculus); experiment: Inhibition of PLCgamma2 phosphorylation in RANKL-induced ICR mouse bone marrow macrophages at 10 uM preincubated for 1 hr followed by RANKL-stimulation and measured after 5 to 30 mins by Western blot analysis
[9] = tested on: BMDM; experiment: Anti-osteoporosis activity in ICR mouse bone marrow macrophages assessed as inhibition of RANKL-induced c-Fos mRNA expression at 10 uM after 12 to 48 hrs by RT-PCR analysis; format: functional, cell-based
[10] = tested on: BMDM; experiment: Anti-osteoporosis activity in ICR mouse bone marrow macrophages assessed as inhibition of RANKL-induced NFATc1 mRNA expression at 10 uM after 12 to 48 hrs by RT-PCR analysis; format: functional, cell-based
[11] = tested on: BMDM; experiment: Anti-osteoporosis activity in ICR mouse bone marrow macrophages assessed as inhibition of RANKL-induced c-Fos protein expression at 10 uM after 12 to 48 hrs by Western blot analysis; format: functional, cell-based
[12] = tested on: BMDM; experiment: Anti-osteoporosis activity in ICR mouse bone marrow macrophages assessed as inhibition of RANKL-induced NFATc1 protein expression at 10 uM after 12 to 48 hrs by Western blot analysis; format: functional, cell-based
[13] = tested on: BMDM; experiment: Anti-osteoporosis activity in ICR mouse bone marrow macrophages assessed as inhibition of RANKL-induced OSCAR mRNA expression at 10 uM after 12 to 48 hrs by RT-PCR analysis; format: functional
[14] = tested on: BMDM; experiment: Anti-osteoporosis activity in ICR mouse bone marrow macrophages assessed as inhibition of RANKL-induced OC-STAMP mRNA expression at 10 uM after 12 to 48 hrs by RT-PCR analysis; format: functional
[15] = tested on: BMDM; experiment: Anti-osteoporosis activity in ICR mouse bone marrow macrophages assessed as inhibition of RANKL-induced DC-STAMP mRNA expression at 10 uM after 12 to 48 hrs by RT-PCR analysis; format: functional
[16] = tested on: BMDM; experiment: Anti-osteoporosis activity in ICR mouse bone marrow macrophages assessed as inhibition of RANKL-induced ATP6v0d2 mRNA expression at 10 uM after 12 to 48 hrs by RT-PCR analysis; format: functional
[17] = tested on: BMDM; experiment: Anti-osteoporosis activity in ICR mouse bone marrow macrophages assessed as inhibition of RANKL-induced MMP9 mRNA expression at 10 uM after 12 to 48 hrs by RT-PCR analysis; format: functional
[18] = tested on: BMDM; experiment: Anti-osteoporosis activity in ICR mouse bone marrow macrophages assessed as inhibition of RANKL-induced beta3-integrin mRNA expression at 10 uM after 12 to 48 hrs by RT-PCR analysis; format: functional
[19] = target: RAC-alpha serine/threonine-protein kinase (Mus musculus) (UniProt P31750); experiment: Inhibition of AKT phosphorylation in RANKL-induced ICR mouse bone marrow macrophages at 10 uM preincubated for 1 hr followed by RANKL-stimulation and measured after 5 to 30 mins by Western blot analysis
[20] = target: I-kappa-B kinase (Mus musculus) (UniProt Q60680+O88351+O88522); experiment: Inhibition of IKappaB phosphorylation in RANKL-induced ICR mouse bone marrow macrophages at 10 uM preincubated for 1 hr followed by RANKL-stimulation and measured after 5 to 30 mins by Western blot analysis; format: protein-complex assay
[21] = tested on: BMDM; experiment: Inhibition of RANKL-induced osteoclastogenesis in ICR mouse bone marrow harboring constitutively active AKT macrophages assessed as reduction in TRAP-positive multinucleated osteoclasts at 10 uM after 3 days by TRAP staining based assay; format: functional, cell-based
[22] = tested on: BMDM; experiment: Inhibition of RANKL-induced osteoclastogenesis in ICR mouse bone marrow macrophages harboring constitutively active IKKbeta assessed as reduction in TRAP-positive multinucleated osteoclasts at 10 uM after 3 days by TRAP staining based assay; format: functional, cell-based
[23] = tested on: HEK-293T; experiment: Trans-suppression of NFkappaB (unknown origin) in HEK293T cells cotransfected with betagalactosidase at 10 uM incubated for 12 hrs followed by RANKL-stimulation by luciferase reporter gene assay; format: cell-based; conditions: Homo sapiens
[24] = tested on: Osteoclast; experiment: Inhibition of bone-resorbing in ICR mouse osteoclasts assessed as reduction in resorption at 10 uM after 24 hrs by pit formation assay; format: functional, cell-based
[25] = tested on: Osteoclast; experiment: Inhibition of bone-resorbing in ICR mouse osteoclasts assessed as downregulation of Ctsk-mRNA expression at 10 uM after 12 to 48 hrs by RT-PCR analysis; format: functional, cell-based
[26] = tested on: Mus musculus; experiment: Anti-resorptive activity in ICR mouse model of LPS-Induced bone loss assessed as reduction in bone loss in proximal femurs at 10 mg/kg, po for 8 days by micro-CT analysis; format: functional, organism-based
[27] = tested on: Mus musculus; experiment: Anti-resorptive activity in ICR mouse model of LPS-Induced bone loss assessed as reduction in trabecular separation in proximal femurs at 10 mg/kg, po for 8 days by micro-CT analysis; format: functional, organism-based
[28] = tested on: Mus musculus; experiment: Anti-resorptive activity in ICR mouse model of LPS-Induced bone loss assessed as increase in trabecular number in proximal femurs at 10 mg/kg, po for 8 days by micro-CT analysis; format: functional, organism-based
[29] = tested on: Mus musculus; experiment: Anti-resorptive activity in ICR mouse model of LPS-Induced bone loss assessed as increase in bone volume per tissue volume in proximal femurs at 10 mg/kg, po for 8 days by micro-CT analysis; format: functional, organism-based
[30] = tested on: Mus musculus; experiment: Anti-resorptive activity in ICR mouse model of LPS-Induced bone loss assessed as increase in trabecular bone in femurs at 10 mg/kg, po for 8 days by H and E staining based light microscopic analysis; format: functional, organism-based
[31] = tested on: Mus musculus; experiment: Anti-resorptive activity in ICR mouse model of LPS-Induced bone loss assessed as inhibition of TRAP-positive multinucleated osteoclasts formation in femurs at 10 mg/kg, po for 8 days by TRAP staining based light microscopic analysis; format: functional, organism-based

NC1(c2ccc(-c3nc4ccn5c(=O)[nH]nc5c4cc3-c3ccccc3)cc2)CCC1
inhibition [1]: Active
inhibition [2]: Active
inhibition [3]: Active
inhibition [4]: Active

C=C(C)[C@@H]1CC[C@]2(C(=O)O)CC[C@]3(C)[C@H](CC[C@@H]4[C@@]5(C)CC[C@H](O)C(C)(C)[C@@H]5CC[C@]43C)[C@@H]12 [BETULINIC ACID]
inhibition [5]: Dose-dependent effect
Activity [6]: Non-Toxic
inhibition [7]: Active
inhibition [8]: Active
inhibition [9]: Active
inhibition [10]: Active
inhibition [11]: Active
inhibition [12]: Active
fold change (FC) [13]: 2 - 4
fold change (FC) [14]: 2 - 4
fold change (FC) [15]: 2 - 4
fold change (FC) [16]: 2 - 4
fold change (FC) [17]: 2 - 4
fold change (FC) [18]: 2 - 4
inhibition [19]: Active
inhibition [20]: Active
inhibition [21]: inactive
inhibition [22]: Active
Activity [23]: Active
inhibition [24]: Active
inhibition [25]: Active
Activity [26]: Active
Activity [27]: Active
Activity [28]: Active
Activity [29]: Active
Activity [30]: Active
inhibition [31]: Active
